Values of other authors in patent publication US6051572A, “Azetidine, pyrrolidine and piperidine derivatives” (Merck Sharp & Dohme Ltd., priority 1995, dated 2000).

Settings: therapeutic doses

Compound: CNS(=O)(=O)Cc1ccc2[nH]cc(CCN(C)C)c2c1 [sumatriptan]
- adverse events in humans: certain adverse cardiovascular events
